Legend:
[1] = dosage of 7 mg/m^2; cited from earlier work
[2] = cited from earlier work
[3] = in 96 hrs through human cadaver skin; U.S. Pat. No. 8,449,908; cited from earlier work
[4] = Delivery of THC through human cadaver skin (U.S. Pat. No. 8,449,908); format: in vitro ADME; conditions: calculated from the cumulative amount in 96 hrs
Method: U.S. Pat. No. 8,449,908 provides delivery of the cumulative amount of 10000 ng THC in 96 hrs through the human cadaver skin. This amount represents the flux of 60 ng/cm^2/hr. The patch area can be calculated using following equation: […]
In order to deliver a therapeutic dosage of 5 mg/day of delta-9-THC, a transdermal formulation would need to cover at least […] surface area of the patient's skin. This is an impractical patch size for any transdermal drug delivery system (TDDS).

CCCCCc1cc(O)c2c(c1)OC(C)(C)[C@@H]1CCC(C)=C[C@@H]21 (relative stereo) [dronabinol, (6aR-trans)-6a,7,8,10a-tetrahydro-6,6,9-trimethyl-3-pentyl-6H-dibenzo[b,d]pyran-1-ol]
adverse effects [1]: not induced
share of the administered dose that reaches systemic circulation ([2]; after oral administration, first pass hepatic metabolism): 10%-20%
Alpha half-life ([2]; in vivo): about 4 hours
cumulative amount of THC delivered [3]: 10000 ng
flux [4]: 60 ng/cm^2/hr

— patent US20210100737A1, “TRANSDERMAL DELIVERY OF DRONABINOL” (Starton Therapeutics, Inc., priority 2019, published 2021)
